Measured values taken from article PMC9897788, “Design, synthesis and cytotoxic evaluation of novel bis-thiazole derivatives as preferential Pim1 kinase inhibitors with in vivo and in silico study” (Journal of Enzyme Inhibition and Medicinal Chemistry, 2023).

Columns and labels:
Test in all cases: NCI 60 cell one-dose screening (SRB)
Format in all cases: cell-based
[1] = system: HCT-116; conditions: Homo sapiens; HCT-116, Colon Cancer; single dose 10 µM, 48 h; read-out: Percentage of cellular growth inhibition
Protocol: (§1) The 60 cancerous cell panel screening was performed following the Developmental Therapeutics Program (DTP) of the National Cancer Institute (NIH-NCI), USA. A single dose of 10 µM was used to perform the screening at 48 h incubation and the results were achieved as cancerous cell growth percentage relative to the no-drug control that was converted to an inhibition percentage by subtracting from 100.The cancerous cell lines were grown in RPMI 1640 medium containing 5% foetal bovine serum and 2 mM L-glutamine at 37 °C, 5% CO2, 95% air and 100% relative humidity for 24 h prior to addition of the tested compounds. After 24 h, two plates of each cell line were fixed in situ with TCA to represent a measurement of the cell population for each cell line at the time of drug addition (Tz). Compounds were dissolved in DMSO at 400-fold the desired final maximum test concentration and stored frozen prior to use. At the time of drug addition, an aliquot of frozen concentrate was thawed and diluted to twice the desired final maximum test concentration with complete medium containing 50 µg/mL gentamicin. Aliquots of 100 µL of the compounds dilution was added to the appropriate micro titre wells already containing 100 µL of medium, resulting in the required final drug concentrations of 10 µM. Following compounds addition, the plates were incubated for an additional 48 h at 37 °C, 5% CO2, 95% air, and 100% relative humidity. For adherent cells, the assay was terminated by the addition of cold TCA. Cells were fixed in situ by the gentle addition of 50 µL of cold 50% (w/v) TCA (final concentration, 10% TCA) and incubated for 60 min at 4 °C. The supernatant was discarded, and the plates were washed five times with tap water and air dried. Sulphorhodamine B (SRB) solution (100 µL) at 0.4% (w/v) in 1% acetic acid is added to each well, and plates are incubated for 10 min at room temperature. After staining, unbound dye was removed by washing five times with 1% acetic acid and the plates were air dried. Bound stain was subsequently solubilised with 10 mM trizma base, and the absorbance was read on an automated plate reader at a wavelength of 515 nm. For suspension cells, the methodology was the same except that the assay was terminated by fixing settled cells at the bottom of the wells by gently adding 50 µL of 80% TCA (final concentration, 16% TCA). Using the seven absorbance measurements [time zero, (Tz), control growth, I, and test growth in the presence of drug at the five concentration levels (Ti)], the percentage growth was calculated as: [(Ti−Tz)/(C−Tz)]×100 for concentrations for which Ti>/=Tz [(Ti−Tz)/Tz]×100 for concentrations for which Ti<Tz.

[2] = system: OVCAR-8; conditions: Homo sapiens; OVCAR-8, Ovarian Cancer; single dose 10 µM, 48 h; read-out: Percentage of cellular growth inhibition
Protocol: as §1

[3] = system: U251; conditions: Homo sapiens, U-251; U251, CNS Cancer; single dose 10 µM, 48 h; read-out: Percentage of cellular growth inhibition
Protocol: as §1

[4] = system: SNB-19; conditions: Homo sapiens; SNB-19, CNS Cancer; single dose 10 µM, 48 h; read-out: Percentage of cellular growth inhibition
Protocol: as §1

[5] = system: COLO 205; conditions: Homo sapiens; COLO 205, Colon Cancer; single dose 10 µM, 48 h; read-out: Percentage of cellular growth inhibition
Protocol: as §1

[6] = system: M14; conditions: Homo sapiens; M14, Melanoma; single dose 10 µM, 48 h; read-out: Percentage of cellular growth inhibition
Protocol: as §1

[7] = system: DU-145; conditions: Homo sapiens; DU-145, Prostate Cancer; single dose 10 µM, 48 h; read-out: Percentage of cellular growth inhibition
Protocol: as §1

[8] = system: HCC-2998; conditions: Homo sapiens; HCC-2998, Colon Cancer; single dose 10 µM, 48 h; read-out: Percentage of cellular growth inhibition
Protocol: as §1

[9] = system: UACC-257; conditions: Homo sapiens; UACC-257, Melanoma; single dose 10 µM, 48 h; read-out: Percentage of cellular growth inhibition
Protocol: as §1

[10] = system: BT-549; conditions: Homo sapiens; BT-549, Breast Cancer; single dose 10 µM, 48 h; read-out: Percentage of cellular growth inhibition
Protocol: as §1

[11] = system: OVCAR-5; conditions: Homo sapiens; OVCAR-5, Ovarian Cancer; single dose 10 µM, 48 h; read-out: Percentage of cellular growth inhibition
Protocol: as §1

[12] = system: SN12C; conditions: Homo sapiens, Renal Cancer, single dose 10 µM, 48 h, read-out: Percentage of cellular growth inhibition
Protocol: as §1

[13] = system: MOLT-4; conditions: Homo sapiens; MOLT-4, Leukemia; single dose 10 µM, 48 h; read-out: Percentage of cellular growth inhibition
Protocol: as §1

[14] = system: CAKI-1; conditions: Homo sapiens; CAKI-1, Renal Cancer; single dose 10 µM, 48 h; read-out: Percentage of cellular growth inhibition
Protocol: as §1

[15] = system: CCRF-CEM; conditions: Homo sapiens, Leukemia, single dose 10 µM, 48 h, read-out: Percentage of cellular growth inhibition
Protocol: as §1

[16] = system: UACC-62; conditions: Homo sapiens; UACC-62, Melanoma; single dose 10 µM, 48 h; read-out: Percentage of cellular growth inhibition
Protocol: as §1

[17] = system: HL-60(TB); conditions: Homo sapiens, Leukemia, single dose 10 µM, 48 h, read-out: Percentage of cellular growth inhibition
Protocol: as §1

[18] = system: SK-OV-3; conditions: Homo sapiens; SK-OV-3, Ovarian Cancer; single dose 10 µM, 48 h; read-out: Percentage of cellular growth inhibition
Protocol: as §1

[19] = system: NCI-H226; conditions: Homo sapiens; NCI-H226, Non-Small Cell Lung Cancer; single dose 10 µM, 48 h; read-out: Percentage of cellular growth inhibition
Protocol: as §1

[20] = system: PC-3; conditions: Homo sapiens; PC-3, Prostate Cancer; single dose 10 µM, 48 h; read-out: Percentage of cellular growth inhibition
Protocol: as §1

[21] = system: MDA-MB-435; conditions: Homo sapiens; MDA-MB-435, Melanoma; single dose 10 µM, 48 h; read-out: Percentage of cellular growth inhibition
Protocol: as §1

| SMILES | inhibition at 10 µM [1] [%] | inhibition at 10 µM [2] [%] | inhibition at 10 µM [3] [%] | inhibition at 10 µM [4] [%] | inhibition at 10 µM [5] [%] | inhibition at 10 µM [6] [%] | inhibition at 10 µM [7] [%] | inhibition at 10 µM [8] [%] | inhibition at 10 µM [9] [%] | inhibition at 10 µM [10] [%] | inhibition at 10 µM [11] [%] | inhibition at 10 µM [12] [%] | inhibition at 10 µM [13] [%] | inhibition at 10 µM [14] [%] | inhibition at 10 µM [15] [%] | inhibition at 10 µM [16] [%] | inhibition at 10 µM [17] [%] | inhibition at 10 µM [18] [%] | inhibition at 10 µM [19] [%] | inhibition at 10 µM [20] [%] | other results |
| --- | --- | --- | --- | --- | --- | --- | --- | --- | --- | --- | --- | --- | --- | --- | --- | --- | --- | --- | --- | --- | --- |
| S=C(Nc1ccccc1)Nc1cccc(NC(=S)Nc2ccccc2)c1 [compound 7, 1,1′-(1,3-phenylene)bis(3-phenylthiourea)] | -11.8 | 4 | -1.4 | 3.4 | -37.6 | -19.6 | -10.2 | -11.5 | -1.7 | -13.2 | -4.9 | 4.5 | -5.8 | 10.9 | 56.8 | 5.8 | -2.5 | -29 | -6.2 | -24 | inhibition at 10 µM [21]: -2.8% |
| Clc1ccc(-c2cs/c(=N\c3ccccc3)n2-c2cccc(-n3c(-c4ccc(Cl)cc4)cs/c3=N\c3ccccc3)c2)cc1 [8c, N,N’-(3,3’-(1,3-phenylene)bis(4–(4-chlorophenyl)thiazole-3(3H)-yl-2(3H)-ylidene))dianiline] | 15.7 | 7.9 | 11.1 | 3.8 | 17.2 | -10.7 | 19.2 | -1.7 | -8.4 | -15.5 | -2.6 | 2.3 | 12.3 | 9 | 32.6 | 10.5 | 41.8 | -29.4 | 16.9 | 28.9 | inhibition at 10 µM [21]: 5.4% |
| c1ccc(-c2csc(Nc3cccc(Nc4nc(-c5ccccc5)cs4)c3)n2)cc1 [6a, N^1,N^3-bis(4-phenylthiazol-2-yl)benzene-1,3-diamine] | 60 | 60.1 | 48.8 | 42 | 16.5 | 52.2 | 41.1 | 64.5 | 53.9 | 68.3 | 35.5 | 56.6 | 86.3 | 65.1 | 61.4 | 49.7 | 34.1 | 2.5 | 33.8 | 67.9 | inhibition at 10 µM [21]: 55.3% |
| Cc1csc(Nc2cccc(Nc3nc(C)cs3)c2)n1 [3a, N^1,N^3-bis(4-methylthiazol-2-yl)benzene-1,3-diamine] | 4.8 | 21.2 | 3.5 | 1 | -3.8 | -7.3 | 10.2 | -4.2 | -21.6 | -24.4 | 7.1 | 13.8 | 44 | 23.7 | 1.5 | 22.3 | 18.2 | 10.7 | 24.2 | 20.2 | inhibition at 10 µM [21]: 4% |
| Cc1nc(Nc2cccc(Nc3nc(C)c(N=Nc4ccccc4)s3)c2)sc1N=Nc1ccccc1 [5a, N^1,N^3-bis(4-methyl-5-(phenyldiazenyl)thiazol-2-yl)benzene-1,3-diamine] | 14.1 | 33.4 | 30.1 | 42.6 | -4.9 | -7.6 | 16.6 | -0.4 | 2.7 | 5.8 | 19.8 | 53.9 | 32.6 | 54.8 | 12.3 | 30.9 | 5.5 | -6.6 | 33 | -3.3 | inhibition at 10 µM [21]: 7.9% |
| CCOc1ccc(/N=N/c2sc(Nc3cccc(Nc4nc(C)c(/N=N/c5ccc(OCC)cc5)s4)c3)nc2C)cc1 [5b, N^1,N^3-bis(5-((4-ethoxyphenyl)diazinyl)-4-methylthiazol-2-yl)benzene-1,3-diamine] | 3.8 | -4 | 3.3 | 11.5 | -5.1 | -7 | -3.9 | -4.6 | -9.2 | -3.7 | 9 | 4.7 | -2.2 | 8.3 | -13.9 | 20.5 | 8.9 | 1.1 | 14.8 | 6.2 | inhibition at 10 µM [21]: 1.6% |
| Clc1ccc(-c2csc(Nc3cccc(Nc4nc(-c5ccc(Cl)cc5)cs4)c3)n2)cc1 [6c, N^1,N^3-bis(4–(4-chlorophenyl)thiazol-2-yl)benzene-1,3-diamine] | 38.5 | 7.7 | 2.2 | 11.5 | -7.3 | 29.3 | -1.8 | -10.9 | -20.4 | -6.1 | 9.6 | 1 | 25.4 | 43 | 10.4 | 17.4 | 14.6 | 8.3 | 27.2 | 22.2 | inhibition at 10 µM [21]: -7.1% |
